Where “and” joins values, the source holds several entries; their conditions need not be identical. Equal entries are not always repeated. Calls of active or inactive are those of the source.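 Rule for the calls: active = IC50 no higher than ten times the top tested dose; inconclusive = flat fit with 30 to 70% inhibition, or poor fit; inactive = IC50 above ten times the top dose.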
System: Clostridium difficile clinical isolate growth, OD600, 24 h
Experiment: growth modulation of Clostridium difficile isolate – OD600, 9-point, retest, dose response (AID 1224920);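 note: inhibitors lower culture turbidity so OD600 falls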

| SMILES | IC50 |
| --- | --- |
| O=C(Nc1ccccc1)N1C[C@@H]2N[C@H](C1)[C@@H]2c1ccc(/C=C/c2ccccc2)cc1 | 13 µM |
| O=S(=O)(c1ccccc1F)N1[C@@H]2CNC[C@H]1C2c1ccc(/C=C/c2ccccc2)cc1 (some centres not stated) | 73.5 µM |
| O=S(=O)(c1ccccc1F)N1C[C@@H]2N[C@H](C1)C2c1ccc(/C=C/c2ccccc2)cc1 (some centres not stated) | 19.4 µM |
| Cc1ccc(-c2ccc([C@@H]3[C@@H]4CN(Cc5ccccc5F)C[C@H]3N4)cc2)cc1 | 4.19 µM |
| O=C(C[C@@H]1CC[C@@H]2[C@H](COC[C@H](O)CN2C(=O)Nc2ccc(C(F)(F)F)cc2)O1)NCC1CCCCC1 | 7.67 µM |
| COc1cccc(S(=O)(=O)N2C[C@@H]3N[C@H](C2)C3c2ccc(-c3ccccc3F)cc2)c1 (some centres not stated) | 26 µM |
| Cc1cccc(-c2ccc(C3[C@@H]4CN(C(=O)C5CCCCC5)C[C@H]3N4)cc2)c1 (some centres not stated) | 26.6 µM |
| Fc1ccc(-c2ccc(C3[C@@H]4CN(Cc5cccc(F)c5)C[C@H]3N4)cc2)cc1 (some centres not stated) | 5.47 µM and 20.4 µM |
| O=C(NC[C@H]1N[C@H](CO)[C@@H]1c1ccc(C2=CCCCC2)cc1)c1ccc(F)cc1 | 29.1 µM |
| O=C(Nc1ccc(C(F)(F)F)cc1)N1C[C@@H]2N[C@H](C1)C2c1ccc(-c2cccc(F)c2)cc1 (some centres not stated) | 2.63 µM and 2.5 µM |
| OC[C@@H]1Nc2ccc(C#Cc3cccc(F)c3)cc2[C@H]2NCC[C@@H]12 | 38.3 µM |
| COc1cccc(S(=O)(=O)N2C[C@@H]3N[C@H](C2)C3c2ccc(-c3ccccc3C)cc2)c1 (some centres not stated) | 28.6 µM |
| OC[C@@H]1Nc2ccc(-c3ccc(F)cc3)cc2[C@@H]2[C@H]1CCN2Cc1ccc(F)cc1 | 82.4 µM |
| Cc1ccccc1S(=O)(=O)N1CCCCN2[C@H](CO)[C@H](c3ccc(-c4cccc(F)c4)cc3)[C@H]2C1 | 11.3 µM |
| OC[C@@H]1[C@@H](c2ccc(C#CC3CCCC3)cc2)[C@H]2CN(CCC(F)(F)F)CCCCN12 | 26.9 µM |
| Cc1ccccc1S(=O)(=O)N1C[C@@H]2N[C@H](C1)C2c1ccc(-c2cccc(C#N)c2)cc1 (some centres not stated) | 91.2 µM |
| N#Cc1cccc(-c2ccc(C3[C@@H]4CN(Cc5ccccc5F)C[C@H]3N4)cc2)c1 (some centres not stated) | 28.6 µM and 26.1 µM |
| N#Cc1ccc(-c2ccc([C@@H]3[C@H]4CNC[C@@H]3N4Cc3ccc4c(c3)OCO4)cc2)cc1 | 102 µM |
| O=C(C[C@@H]1CC[C@@H]2[C@H](COC[C@H](O)CN2C(=O)Nc2ccc(C(F)(F)F)cc2)O1)NC1Cc2ccccc2C1 | 17.5 µM |
| O=C(C[C@H]1CC[C@H]2[C@@H](COC[C@H](O)CN2C(=O)Nc2ccc(C(F)(F)F)cc2)O1)NCC1CCCCC1 | 7.15 µM |
| O=C(C[C@H]1CC[C@H]2[C@@H](COC[C@H](O)CN2C(=O)Nc2ccc(C(F)(F)F)cc2)O1)NC1Cc2ccccc2C1 | 3.82 µM |

| SMILES | IC50 |
| --- | --- |
| O=C(c1ccccc1)N1CC[C@@H]2[C@H]1c1cc(-c3ccc(F)cc3)ccc1N[C@@H]2CO | 129 µM |
| COc1cccc(-c2ccc3c(c2)[C@H]2[C@H](CCN2Cc2ccccc2OC)[C@H](CO)N3)c1 | 56.5 µM |
| N#Cc1ccc(-c2ccc3c(c2)[C@H]2[C@H](CCN2Cc2ccc4c(c2)OCO4)[C@H](CO)N3)cc1 | 23.4 µM |
| Cc1cccc(-c2ccc([C@@H]3[C@@H]4CN(C(=O)CN(C)C)C[C@H]3N4)cc2)c1 | 61.5 µM |
| Cc1ccc(-c2ccc([C@@H]3[C@H](CO)N4CCCCN(C(=O)Nc5cccc(F)c5)C[C@@H]34)cc2)cc1 | 6.52 µM |
| COc1ccccc1CN1CC[C@@H]2[C@H]1c1cc(C3=CCCCC3)ccc1N[C@@H]2CO | 74.5 µM |
| Cc1ccccc1-c1ccc(C2[C@@H]3CN(C(=O)NC4CCCCC4)C[C@H]2N3)cc1 (some centres not stated) | 57.7 µM |
| O=C(Nc1ccccc1)N1C[C@@H]2N[C@H](C1)C2c1ccc(-c2ccccc2F)cc1 (some centres not stated) | 52.3 µM |
| Cc1ccc(S(=O)(=O)N2[C@@H]3CNC[C@H]2C3c2ccc(-c3cccc(C)c3)cc2)cc1 (some centres not stated) | 32.1 µM |
| C(=C\c1ccc(C2[C@@H]3CN(Cc4cocn4)C[C@H]2N3)cc1)/c1ccccc1 (some centres not stated) | 11 µM |
| Cc1ccc(-c2ccc([C@@H]3[C@@H](CO)N4CCCCN(C(=O)c5ccc(F)cc5)C[C@H]34)cc2)cc1 | 34.4 µM |
| COc1ccccc1NC(=O)N1CCCCN2[C@H](CO)[C@H](c3ccc(-c4cccc(C)c4)cc3)[C@H]2C1 | 10.3 µM |
| O=S(=O)(Cc1ccccc1)N1CCCCN2[C@H](CO)[C@@H](c3ccc(C#Cc4ccccc4)cc3)[C@H]2C1 | > 240 µM (inactive) |
| O=C(Nc1ccc2c(c1)OCO2)N1C[C@@H]2N[C@H](C1)C2c1ccc(C=Cc2ccccc2)cc1 (some centres not stated) | 28.3 µM |
| CC(C)CC#Cc1ccc([C@@H]2[C@@H](CO)N3CCCCN(C(=O)Nc4ccccc4)C[C@H]23)cc1 | 10.9 µM |
| Cc1cccc(S(=O)(=O)N2C[C@@H]3N[C@H](C2)C3c2ccc(-c3ccccc3C)cc2)c1 (some centres not stated) | 12.5 µM |
| O=C(Nc1cccc(F)c1)N1CCCCN2[C@H](CO)[C@@H](c3ccc(-c4ccccc4F)cc3)[C@H]2C1 | 29.7 µM |
| Cc1ccc(S(=O)(=O)N2[C@@H]3CNC[C@H]2C3c2ccc(-c3ccccc3C)cc2)cc1 (some centres not stated) | 30.6 µM |
| Cc1ccc(-c2ccc([C@H]3[C@H](CO)N4CCCCN(C(=O)Nc5cccc(F)c5)C[C@@H]34)cc2)cc1 | 11.2 µM |
| C(=C\c1ccc(C2[C@@H]3CN(Cc4cccnc4)C[C@H]2N3)cc1)/c1ccccc1 (some centres not stated) | 52.1 µM and 56.8 µM |
| COc1ccccc1NC(=O)N1CCCCN2[C@@H](CO)[C@H](c3ccc(-c4cccc(C)c4)cc3)[C@@H]2C1 | 93.9 µM |

From PubChem BioAssay AID1224920 (Broad Institute, 2016)
